Source: US20250296922A1, “POLYSUBSTITUTED PYRROLIDINE DERIVATIVE, PREPARATION METHOD THEREFOR AND USE THEREOF” (SHANGHAI WENNAI THERAPEUTICS CO LTD, priority 2023, published 2025)

Target: Nav1.8 sodium channel (Homo sapiens (Human), UniProt Q9Y5Y9)
Assay: NaV1.8 blocking activity, manual patch clamp
Type: cell-based
Settings: CHO cell line stably expressing Nav1.8
Experimental: The NaV1.8 blocking activity was determined by using a manual patch clamp technique to detect the effect of the subject on the channel currents of stably overexpressed Nav1.8.
CHO cell line stably expressing the Nav1.8 sodium channel was used for the experiments, gene information: sodium channel, voltage-gated, type 8, alpha (SCN10A), cDNA strictly similar to GenBank accession number: NM 006514.
Cells were cultured in HAM'S/F-12 medium containing 10% foetal bovine serum and 10 μg/mL Blasticidin, 200 μg/mL Hygromycin B, and 100 μg/mL Zeocin at 37° C., 5% CO2. For expansion or maintenance cultures, cells were treated with 0.25%-Trypsin-EDTA, washed and centrifuged, and then inoculated in 6-cm cell culture dishes with 2.5×10^5lls per cell culture dish (final volume: 5 mL).
Prior to the patch clamp detection, cells were separated with 0.25%-Trypsin-EDTA and 6.5×10^3 cells were spread onto coverslips and incubated (final volume: 500 μL) in 24-well plates for 18 hours, then the test was performed.
50 mM CsCl, 10 mM NaCl, 10 mM HEPES, 60 mM CsF, 20 mM EGTA, and pH was adjusted to 7.2 with CsOH. • Instrument information is provided in Table 2 below:
Prior to Nav1.8 channel current testing, a blank control solution (DMSO) was diluted into 10 ml of extracellular fluid as the working solution. Positive controls and subjects were first diluted with different doses of DMSO depending on the final concentration before being diluted as working solution using extracellular fluid. 100 nM TTX was added to each working solution to block the TTX-S current. The working solution was sonicated for 20 min before performing the patch clamp test detection.
Patch clamp manipulation: firstly, the capillary glass tube was drawn into a recording electrode using a microelectrode puller, then the electrode filled with intracellular fluid was loaded into the microelectrode holder, and the microelectrode manipulator was manoeuvred under an inverted microscope to immerse the electrode into the extracellular fluid and record the electrode resistance (Rpip). The electrode was then slowly contacted to the cell surface and negative pressure suction was given to form a GQ2 seal. At this time, fast capacitance compensation was performed and negative pressure was continually applied to suction through the cell membrane to form a whole-cell recording pattern. Finally, slow capacitance compensation was performed and experimental parameters such as series resistance (Rs) were recorded. No leakage compensation was given.
Drug administration was initiated when the Nav1.8 current was stabilized for whole-cell recordings, and the next concentration was detected after each drug concentration had acted for approximately 5 min (or until the current was stable). Cell-lined coverslips were placed in the recording bath under an inverted microscope, and the blank control external solution as well as the working solution of the compound to be tested flowed sequentially from low to high concentrations through the recording bath by using gravitational perfusion and thus acted on the cells, and a peristaltic pump was used to exchange fluids during the recording. The current detected by each cell in the compound-free external fluid served as its own control. Each concentration was repeated independently 2-3 times. All electrophysiological experiments were performed at room temperature.
The voltage stimulation scheme for whole-cell patch-clamp recording of Nav1.8 currents was as follows: when a whole-cell seal was formed, the voltage was clamped at −120 mV. The resting state recording of sodium currents was performed by maintaining the voltage for 5s and then depolarizing it to 0 mV, and then administering a depolarizing pulse (TP1) to 0 m V for 50 ms for detecting the resting state sodium currents. For half-inactivated state recording, the voltage was first stepped at different voltages and maintained for 5s and then a depolarizing pulse was given to 0 mV to detect the Vhalf. […]

Sequence of Nav1.8 sodium channel (Q9Y5Y9 whole entry): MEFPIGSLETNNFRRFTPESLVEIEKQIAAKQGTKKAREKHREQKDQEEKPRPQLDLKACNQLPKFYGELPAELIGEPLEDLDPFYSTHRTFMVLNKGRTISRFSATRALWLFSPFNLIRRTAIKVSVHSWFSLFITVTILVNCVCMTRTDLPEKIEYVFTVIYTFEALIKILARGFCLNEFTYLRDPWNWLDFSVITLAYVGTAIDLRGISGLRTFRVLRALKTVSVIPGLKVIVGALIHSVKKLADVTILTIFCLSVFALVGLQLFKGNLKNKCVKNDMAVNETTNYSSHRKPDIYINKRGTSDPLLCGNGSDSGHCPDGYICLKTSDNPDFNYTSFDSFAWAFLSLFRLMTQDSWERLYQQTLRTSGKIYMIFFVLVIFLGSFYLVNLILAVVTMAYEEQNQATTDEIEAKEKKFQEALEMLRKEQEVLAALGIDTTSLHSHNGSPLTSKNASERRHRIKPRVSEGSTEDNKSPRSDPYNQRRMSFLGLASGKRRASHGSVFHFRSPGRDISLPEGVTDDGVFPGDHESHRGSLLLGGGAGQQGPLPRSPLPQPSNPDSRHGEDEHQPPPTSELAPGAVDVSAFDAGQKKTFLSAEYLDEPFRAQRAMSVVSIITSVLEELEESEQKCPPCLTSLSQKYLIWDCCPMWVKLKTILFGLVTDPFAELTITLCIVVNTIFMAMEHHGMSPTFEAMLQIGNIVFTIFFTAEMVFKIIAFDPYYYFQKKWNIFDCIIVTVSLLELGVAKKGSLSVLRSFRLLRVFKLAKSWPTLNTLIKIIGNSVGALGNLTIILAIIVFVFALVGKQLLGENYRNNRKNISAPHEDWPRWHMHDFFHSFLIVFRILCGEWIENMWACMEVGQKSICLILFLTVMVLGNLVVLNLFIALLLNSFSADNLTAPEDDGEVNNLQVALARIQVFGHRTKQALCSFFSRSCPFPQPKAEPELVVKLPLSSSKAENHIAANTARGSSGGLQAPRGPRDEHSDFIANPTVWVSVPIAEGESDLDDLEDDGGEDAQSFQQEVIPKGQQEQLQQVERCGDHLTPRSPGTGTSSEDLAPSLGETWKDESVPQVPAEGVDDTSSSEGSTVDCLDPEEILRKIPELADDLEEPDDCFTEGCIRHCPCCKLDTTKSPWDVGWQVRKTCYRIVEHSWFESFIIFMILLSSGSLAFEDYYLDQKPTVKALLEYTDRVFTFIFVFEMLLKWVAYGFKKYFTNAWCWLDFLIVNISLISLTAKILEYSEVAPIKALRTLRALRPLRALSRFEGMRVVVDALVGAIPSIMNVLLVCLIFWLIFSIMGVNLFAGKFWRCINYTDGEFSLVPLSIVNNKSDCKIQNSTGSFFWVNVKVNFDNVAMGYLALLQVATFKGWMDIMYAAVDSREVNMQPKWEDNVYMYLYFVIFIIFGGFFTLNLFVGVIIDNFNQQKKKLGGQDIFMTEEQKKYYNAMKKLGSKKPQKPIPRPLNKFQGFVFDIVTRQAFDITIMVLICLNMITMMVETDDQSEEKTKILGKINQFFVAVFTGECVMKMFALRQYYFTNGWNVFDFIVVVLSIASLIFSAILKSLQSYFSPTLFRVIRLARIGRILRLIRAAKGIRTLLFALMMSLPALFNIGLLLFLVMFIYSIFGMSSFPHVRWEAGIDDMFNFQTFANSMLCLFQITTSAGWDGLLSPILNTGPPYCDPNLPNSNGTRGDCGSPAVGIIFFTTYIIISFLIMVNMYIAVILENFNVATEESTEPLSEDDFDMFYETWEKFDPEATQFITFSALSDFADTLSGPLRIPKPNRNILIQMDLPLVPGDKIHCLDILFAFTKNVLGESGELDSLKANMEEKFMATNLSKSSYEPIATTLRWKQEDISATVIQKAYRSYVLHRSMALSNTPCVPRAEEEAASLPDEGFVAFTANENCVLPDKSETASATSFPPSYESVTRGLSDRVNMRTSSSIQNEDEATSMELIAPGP

| Compound | Blocking rate(%) @10 nM | Blocking rate (%) @3 nM |
| --- | --- | --- |
| COc1c([C@H]2[C@H](C(=O)Nc3ccnc(C(N)=O)c3)N(C)[C@@](C)(C(F)(F)F)[C@H]2C)ccc(F)c1F [Compound 3, 4-((2R,3S,4S,5R)-3-(3,4-difluoro-2-methoxyphenyl)-1,4,5-trimethyl-5-(trifluoromethyl)pyrrolidine-2-carboxamido)pyridine amide] | 84.03% | – |
| COc1c([C@H]2[C@H](C(=O)Nc3ccc([C@@H](O)CO)nc3)N[C@@](C)(C(F)(F)F)[C@H]2C)ccc(F)c1F [Compound 6, (2R,3S,4S,5R)-3-(3,4-difluoro-2-methoxyphenyl)-aza-(6-((R)-1,2-dihydroxyethyl)pyridin-3-yl)-4,5-dimethyl-5-(trifluoromethyl) pyrrolidine-2-carboxamide] | 45.92% | 20.06% |
| COc1c([C@@H]2[C@@H](C(=O)Nc3ccnc(C(N)=O)c3)N[C@](C)(C(F)(F)F)[C@@H]2C)ccc(F)c1F [Compound 2, 4-((2S,3R,4R,5S)-3-(3,4-difluoro-2-methoxyphenyl)-4,5-dimethyl-5-(trifluoromethyl)pyrrolidine-2-carboxamido)pyridine amide] | 9.30% | – |
| COc1c([C@H]2[C@H](C(=O)Nc3ccnc(S(N)(=O)=O)c3)N[C@@](C)(C(F)(F)F)[C@H]2C)ccc(F)c1F [Compound 9, (2R,3S,4S,5R)-3-(3,4-difluoro-2-methoxyphenyl)-4,5-dimethyl-aza-(2-aminosulfonylpyridin-4-yl)-5-(trifluoromethyl) pyrrolidine-2-carboxamide] | 84.91% | 58.06% |
| 4-((2R,3S,4S,5R)-3-(3,4-difluoro-2-(methoxy-d3)phenyl)-4,5-dimethyl-1-(2,2,2-trifluoroacetyl)-5-(trifluoromethyl) pyrrolidine-2-carboxamido)pyridinamide [Compound 17] | 77.24% | 28.89% |
| COc1c([C@H]2[C@H](C(=O)Nc3ccc([C@H](O)CO)nc3)N[C@@](C)(C(F)(F)F)[C@H]2C)ccc(F)c1F [Compound 5, (2R,3S,4S,5R)-3-(3,4-difluoro-2-methoxyphenyl)-aza-(6-((S)-1,2-dihydroxyethyl)pyridin-3-yl)-4,5-dimethyl-5-(trifluoromethyl) pyrrolidine-2-carboxamide] | 79.03% | 72.73% |
| [2H]C([2H])([2H])Oc1c([C@H]2[C@H](C(=O)Nc3ccc(F)c(C(=N)NO)c3)N[C@@](C)(C(F)(F)F)[C@H]2C)ccc(F)c1F [Compound 14, (2R,3S,4S,5R)-3-(3,4-difluoro-2-(methoxy-d3)phenyl)-N-(4-fluoro-3-(N-hydroxycarbamimidoyl)phenyl)-4,5-dimethyl-5-(trifluoromethyl) pyrrolidine-2-carboxamide] | 99.51% | 91.40% |
| COc1c([C@H]2[C@H](C(=O)Nc3ccnc(S(C)(=O)=O)c3)N[C@@](C)(C(F)(F)F)[C@H]2C)ccc(F)c1F [Compound 12, (2R,3S,4S,5R)-3-(3,4-difluoro-2-methoxyphenyl)-4,5-dimethyl-N-(2-(methylsulfonyl)pyridin-4-yl)-5-(trifluoromethyl) pyrrolidine-2-carboxamide] | 88.65% | 77.43% |
| COc1c([C@@H]2[C@@H](C(=O)Nc3ccnc(C(N)=O)c3)N(C)[C@](C)(C(F)(F)F)[C@@H]2C)ccc(F)c1F [Compound 4, 4-((2S,3R,4R,5S)-3-(3,4-difluoro-2-methoxyphenyl)-1,4,5-trimethyl-5-(trifluoromethyl)pyrrolidine-2-carboxamido)pyridine amide] | 6.05% | – |
| C[C@H]1[C@@H](c2ccc(F)c(F)c2OC(F)F)[C@H](C(=O)Nc2ccnc(C(N)=O)c2)N[C@@]1(C)C(F)(F)F [Compound 13, 4-((2R,3S,4S,5R)-3-(2-(difluoromethoxy)-3,4-difluorophenyl)-4,5-dimethyl-5-(trifluoromethyl)pyrrolidine-2-carboxamido)pyridinamide] | 92.01% | 75.71% |

The next lines start with the values.

| Blocking rate(%) @10 nM | Blocking rate (%) @3 nM | Compound |
| --- | --- | --- |
| 63.01% | 40.29% | [2H]C([2H])([2H])Oc1c([C@H]2[C@H](C(=O)Nc3cc[n+]([O-])c(C(N)=O)c3)N[C@@](C)(C(F)(F)F)[C@H]2C)ccc(F)c1F [Compound 18, 2-carbamoyl-4-((2R,3S,4S,5R)-3-(3,4-difluoro-2-(methoxy-d3)phenyl)-4,5-dimethyl-5-(trifluoromethyl)pyrrolidine-2-carboxamido)pyridine 1-oxide] |
| 79.44% | 35.55% | [2H]C([2H])([2H])Oc1c([C@H]2[C@H](C(=O)Nc3ccnc(C(=N)NOC)c3)N[C@@](C)(C(F)(F)F)[C@H]2C)ccc(F)c1F [Compound 15, (2R,3S,4S,5R)-3-(3,4-difluoro-2-(methoxy-d3)phenyl)-N-(2-(N-methoxycarbamimidoyl)pyridin-4-yl)-4,5-dimethyl-5-(trifluoromethyl) pyrrolidine-2-carboxamide] |
| 25.19% | 6.68% | [2H]C([2H])([2H])Oc1c([C@H]2[C@H](C(=O)Nc3ccnc(C(=N)NO)c3)N[C@@](C)(C(F)(F)F)[C@H]2C)ccc(F)c1F [Compound 16, (2R,3S,4S,5R)-3-(3,4-difluoro-2-(methoxy-d3)phenyl)-N-(2-(N-hydroxycarbamimidoyl)pyridin-4-yl)-4,5-dimethyl-5-(trifluoromethyl) pyrrolidine-2-carboxamide] |
| 55.68% | 26.22% | C[C@H]1[C@@H](c2ccc(F)c(F)c2OC(F)F)[C@H](C(=O)Nc2ccnc(C(N)=O)c2)N[C@@]1(C)C(F)(F)F [Compound 19, 4-((2R,3S,4S,5R)-3-(2-(difluoromethoxy)-3,4-difluorophenyl)-4,5-dimethyl-5-(trifluoromethyl)pyrrolidine-2-carboxamido)pyridinamide] |
